In ChEMBL document CHEMBL3352461, “Discovery and optimization of 5-fluoro-4,6-dialkoxypyrimidine GPR119 agonists” (Bioorg Med Chem Lett, 2014) one finds EC50 and Efficacy data, which are given here for 30 compounds.

pEC50: −log10 of the molar value.

Holding throughout (format): functional
Test [1] concerns the target T1, Glucose-dependent insulinotropic receptor (Homo sapiens, UniProt Q8TDV5).
T1 sequence (Q8TDV5 whole entry): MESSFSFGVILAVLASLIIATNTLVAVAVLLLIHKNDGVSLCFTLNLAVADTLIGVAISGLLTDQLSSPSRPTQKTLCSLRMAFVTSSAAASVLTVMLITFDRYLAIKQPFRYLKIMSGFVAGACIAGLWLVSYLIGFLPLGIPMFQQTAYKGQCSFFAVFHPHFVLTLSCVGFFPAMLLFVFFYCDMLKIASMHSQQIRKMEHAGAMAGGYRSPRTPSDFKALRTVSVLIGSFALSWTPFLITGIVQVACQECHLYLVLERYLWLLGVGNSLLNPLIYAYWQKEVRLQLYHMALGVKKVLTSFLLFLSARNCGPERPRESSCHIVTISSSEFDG
Kind of test: […] of human GPR119 activity by homogeneous time resolved fluorescence cyclase (cAMP) assay.

Test [2] deals with T2, Glucose-dependent insulinotropic receptor (Homo sapiens) (UniProt Q8TDV5).
T2 sequence (whole entry): T1 sequence (Q8TDV5 whole entry)
In words: […] of human GPR119 activity by homogeneous time resolved fluorescence cyclase (cAMP) assay relative to AR231453.

Test [3] concerns the target T3, Glucose-dependent insulinotropic receptor (Rattus norvegicus, UniProt Q7TQN8).
T3 sequence (Q7TQN8 whole entry): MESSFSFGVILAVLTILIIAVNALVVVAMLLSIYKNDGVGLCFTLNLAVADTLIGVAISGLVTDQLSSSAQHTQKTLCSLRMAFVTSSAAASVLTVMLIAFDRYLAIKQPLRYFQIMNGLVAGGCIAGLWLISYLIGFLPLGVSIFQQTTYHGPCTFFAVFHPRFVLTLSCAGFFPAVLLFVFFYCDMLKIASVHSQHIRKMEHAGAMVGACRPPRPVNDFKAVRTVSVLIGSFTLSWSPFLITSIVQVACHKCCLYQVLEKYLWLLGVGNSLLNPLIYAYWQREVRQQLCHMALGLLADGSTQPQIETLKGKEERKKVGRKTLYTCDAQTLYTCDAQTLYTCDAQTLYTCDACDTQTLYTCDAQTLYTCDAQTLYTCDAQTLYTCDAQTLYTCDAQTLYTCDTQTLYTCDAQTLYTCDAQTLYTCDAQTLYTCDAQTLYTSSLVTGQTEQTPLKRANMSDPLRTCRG
Kind of test: […] of rat GPR119 activity by homogeneous time resolved fluorescence cyclase (cAMP) assay.

Test [4] addresses T4, Glucose-dependent insulinotropic receptor (Rattus norvegicus) (UniProt Q7TQN8).
T4 sequence (whole entry): T3 sequence (Q7TQN8 whole entry)
In words: […] of rat GPR119 activity by homogeneous time resolved fluorescence cyclase (cAMP) assay relative to AR231453.

In general, pEC50 refers to the negative decadic logarithm of the EC50, by convention in mol/L. Regarding `CCc1cnc(C(=O)N2CCC(Oc3ncnc(Oc4ccc(S(C)(=O)=O)nc4C)c3F)CC2)nc1`, the pEC50 was 8.33 in test [1] and 7.39 in test [3]. Moreover, the Efficacy in test [2] turned out to be 99%; in test [4], 80%.

In the case of `Cc1nc(S(C)(=O)=O)ccc1Oc1ncnc(OC2CCN(C(=O)C3CCCC3)CC2)c1F`, the negative-log EC50 (pEC50) is 7.14 in test [1] and 6.39 in test [3]. Moreover, the Efficacy in test [2] was determined as 87%; in test [4], 83%.

For the compound `Cc1nc(S(C)(=O)=O)ccc1Oc1ncnc(OC2CCN(C(=O)SC3CCC3)CC2)c1F`, the negative-log EC50 (pEC50) is 8.07 in test [1] and 7.11 in test [3]. The figures for the Efficacy in test [2] and in test [4] were 94% and 81%, respectively.

For `Cc1nc(S(C)(=O)=O)ccc1Oc1ncnc(OC2CCN(C(=O)C3(C)CC3)CC2)c1F`, the pEC50 in test [1] was 6.12. Moreover, in test [2], the Efficacy was 72%.

Take `Cc1nc(S(C)(=O)=O)ccc1Oc1ncnc(OC2CCN(C(=O)C(C)(F)F)CC2)c1F`: the negative logarithm of the EC50 (pEC50) in test [1] was 7.43; in test [3], 6.62. Besides, the Efficacy in test [2] was found to be 76%; in test [4], 87%.

On to `Cc1nc(S(C)(=O)=O)ccc1Oc1ncnc(OC2CCN(C(=O)C(F)(F)F)CC2)c1F`, for which the pEC50 is 6.82 in test [1] and 6.06 in test [3]. For the same compound, the figures for the Efficacy in test [2] and in test [4] were 52% and 76%, respectively.

As to `CCC(F)(F)C(=O)N1CCC(Oc2ncnc(Oc3ccc(S(C)(=O)=O)nc3C)c2F)CC1`, the values for the pEC50 in test [1] and in test [3] were 7.76 and 7.16, respectively. Moreover, the Efficacy in test [2] was 85%; in test [4] it was 90%.

As to `Cc1nc(S(C)(=O)=O)ccc1Oc1ncnc(OC2CCN(C(=O)c3noc(C(C)C)n3)CC2)c1F`, the negative logarithm of the EC50 (pEC50) is 7.67 in test [1] and 6.75 in test [3]. Further, the Efficacy in test [2] amounted to 72%; in test [4] it was 81%.

With `Cc1nc(S(C)(=O)=O)ccc1Oc1ncnc(OC2CCN(C(=O)C3(F)CCC3)CC2)c1F`, the negative-log EC50 (pEC50) in test [1] was 7.61; in test [3], 6.91. Further, the Efficacy amounted to 99% in test [2] and 91% in test [4].

As for `Cc1nc(S(C)(=O)=O)ccc1Oc1ncnc(OC2CCN(C(=O)O[C@@H](C)C(F)(F)F)CC2)c1F`, the pEC50 in test [1] was 8.01; in test [3], 6.96. Moreover, the values for the Efficacy in test [2] and in test [4] were 78% and 80%, respectively.

Consider `Cc1nc(S(C)(=O)=O)ccc1Oc1ncnc(OC2CCN(C(=O)SC3CC3)CC2)c1F`, for which the negative-log EC50 (pEC50) in test [1] is 7.60; in test [3], 6.90. The Efficacy is 103% in test [2] and 80% in test [4].

With `Cc1nc(S(C)(=O)=O)ccc1Oc1ncnc(OC2CCN(C(=O)OC3COC3)CC2)c1F`, the figures for the negative logarithm of the EC50 (pEC50) in test [1] and in test [3] were 6.49 and 5.60, respectively. The Efficacy in test [2] was determined as 58%; in test [4], 66%.

Regarding `Cc1nc(S(C)(=O)=O)ccc1Oc1ncnc(OC2CCN(C(=O)OC(C)(C)C#N)CC2)c1F`, the pEC50 in test [1] is 7.03; in test [3], 5.88. Also, the Efficacy in test [2] is 90%; in test [4], 97%.

For the compound `Cc1nc(S(C)(=O)=O)ccc1Oc1ncnc(OC2CCN(C(=O)O[C@@H](C)CF)CC2)c1F`, the negative-log EC50 (pEC50) was 6.73 in test [1] and 5.77 in test [3]. Also, the Efficacy was determined as 72% in test [2] and 84% in test [4].

Regarding `CCC1(OC(=O)N2CCC(Oc3ncnc(Oc4ccc(S(C)(=O)=O)nc4C)c3F)CC2)CC1`, the negative logarithm of the EC50 (pEC50) in test [1] was 7.66; in test [3], 6.48. The Efficacy in test [2] worked out at 65%; in test [4] it was 83%.

Turning to `Cc1nc(S(C)(=O)=O)ccc1Oc1ncnc(OC2CCN(C(=O)SC3(C)CC3)CC2)c1F`, the pEC50 in test [1] was 7.88; in test [3] it was 6.78. The figures for the Efficacy in test [2] and in test [4] were 93% and 77%, respectively.

`Cc1nc(S(C)(=O)=O)ccc1Oc1ncnc(OC2CCN(C(=S)OC3(C)CC3)CC2)c1F` gave a negative-log EC50 (pEC50) in test [3] of 7.31. Further, the Efficacy in test [4] turned out to be 49%.

`Cc1nc(S(C)(=O)=O)ccc1Oc1ncnc(OC2CCN(C(=O)c3noc(C(C)(C)F)n3)CC2)c1F`: the results for the negative-log EC50 (pEC50) in test [1] and in test [3] were 7.85 and 6.99, respectively. The Efficacy in test [2] came to 69%; in test [4], 74%.

As to `Cc1nc(S(C)(=O)=O)ccc1Oc1ncnc(OC2CCN(C(=O)OC3(C(F)(F)F)COC3)CC2)c1F`, the results for the pEC50 in test [1] and in test [3] were 7.53 and 6.47, respectively. The results for the Efficacy in test [2] and in test [4] were 66% and 84%, respectively.

On to `Cc1nc(S(C)(=O)=O)ccc1Oc1ncnc(OC2CCN(C(=O)SC(C)C)CC2)c1F`, for which the negative logarithm of the EC50 (pEC50) in test [1] was 8.17; in test [3], 7.38. For the same compound, the Efficacy in test [2] stood at 95%; in test [4], 81%.

For the compound `Cc1nc(S(C)(=O)=O)ccc1Oc1ncnc(OC2CCN(C(=O)OC(C)(C)CF)CC2)c1F`, the pEC50 in test [1] is 7.70; in test [3], 6.86. Moreover, the Efficacy in test [2] came out at 74%; in test [4], 95%.

As to `Cc1nc(S(C)(=O)=O)ccc1Oc1ncnc(OC2CCN(C(=O)OC3(C(F)(F)F)CCC3)CC2)c1F`, the pEC50 in test [1] is 7.84; in test [3] it was 7.20. The Efficacy in test [2] came to 38%; in test [4], 82%.

Take `Cc1nc(S(C)(=O)=O)ccc1Oc1ncnc(OC2CCN(C(=O)OC3CCC3)CC2)c1F`: the pEC50 in test [1] was 7.87; in test [3], 6.78. Besides, the Efficacy is 65% in test [2] and 81% in test [4].

For `Cc1nc(S(C)(=O)=O)ccc1Oc1ncnc(OC2CCN(C(=O)c3ncc(Cl)cn3)CC2)c1F`, the pEC50 is 8.21 in test [1] and 7.51 in test [3]. Besides, the Efficacy in test [2] stood at 83%; in test [4] it was 77%.

On to `Cc1nc(S(C)(=O)=O)ccc1Oc1ncnc(OC2CCN(C(=O)OC(C)(C)C)CC2)c1F`, for which the values for the pEC50 in test [1] and in test [3] were 8.10 and 7.30, respectively. The Efficacy in test [2] amounted to 81%; in test [4], 97%.

With `Cc1nc(S(C)(=O)=O)ccc1Oc1ncnc(OC2CCN(C(=S)OC(C)C)CC2)c1F`, the pEC50 is 7.16 in test [1] and 5.98 in test [3]. Further, the results for the Efficacy in test [2] and in test [4] were -32% and 47%, respectively.

Turning to `Cc1nc(S(C)(=O)=O)ccc1Oc1ncnc(OC2CCN(C(=O)O[C@H](C)C(F)(F)F)CC2)c1F`, the pEC50 in test [1] is 8.04; in test [3], 6.96. The Efficacy in test [2] is 56%; in test [4] it was 85%.

Consider `Cc1nc(S(C)(=O)=O)ccc1Oc1ncnc(OC2CCN(C(=O)C(C)(C)F)CC2)c1F`, for which the pEC50 was 7.12 in test [1] and 6.53 in test [3]. The Efficacy came out at 66% in test [2] and 74% in test [4].

With `Cc1nc(S(C)(=O)=O)ccc1Oc1ncnc(OC2CCN(C(=O)SC(C)(C)C)CC2)c1F`, the values for the negative-log EC50 (pEC50) in test [1] and in test [3] were 8.32 and 7.51, respectively. The results for the Efficacy in test [2] and in test [4] were 87% and 76%, respectively.

`Cc1nc(S(C)(=O)=O)ccc1Oc1ncnc(OC2CCN(C(=O)c3nc(C(C)(C)F)no3)CC2)c1F`: the pEC50 in test [1] is 7.36; in test [3], 6.22. Further, the Efficacy in test [2] is 74%; in test [4] it was 84%.
